Assay results published in patent publication US12502386B2, “Nitrogen-containing heterocyclic compound and use thereof” (SHANGHAI SHIJIANG BIOTECHNOLOGY CO., LTD, priority 2022, dated 2025).
Where two headings read alike, the source gives them in different places.

Key:
Assay type in all cases: cell-based, human
ov-NNMT NCI-H82 cell = assay: CellTiter-Glo cell viability, ov-NNMT NCI-H82 cell (NNMT overexpressed); conditions: intracellular ATP, read-out: inhibitory effect on OV-NNMT NCI-H82 (IC50)
Con-NCI-H82 cell = assay: CellTiter-Glo cell viability, Con-NCI-H82 cell (empty-vector control); conditions: intracellular ATP, read-out: inhibitory effect on Con-NCI-H82 (IC50)
sh-DNMT1 NCI-H82 cell = assay: CellTiter-Glo cell viability, sh-DNMT1 NCI-H82 cell (DNMT1 knocked down); conditions: intracellular ATP, read-out: inhibitory effect on sh-DNMT1 NCI-H82 (IC50)
[1] = Homo sapiens, NCI-H82, NCI-H82 overexpressing NNMT protein
[2] = Homo sapiens, NCI-H82, NCI-H82 transfected with empty virus vector (control)
[3] = Homo sapiens, NCI-H82, NCI-H82 with DNMT1 knocked down by shRNA

IC50 (ov-NNMT NCI-H82 cell; [1]) [µM] | IC50 (Con-NCI-H82 cell; [2]) [µM] | IC50 (sh-DNMT1 NCI-H82 cell; [3]) [µM] | SMILES | IC50 (ov-NNMT NCI-H82 cell; NCI-H82 overexpressing NNMT protein) [µM] | IC50 (Con-NCI-H82 cell; NCI-H82 transfected with empty virus vector (control)) [µM] | IC50 (sh-DNMT1 NCI-H82 cell; NCI-H82 with DNMT1 knocked down by shRNA) [µM]
2.14 | 0.52 | 3.36 | CCCCCOc1c(OC)ccc2c1C(C(Cl)(Cl)Cl)N1CCc3cc4c(cc3C1=C2)OCO4 (stereo not drawn) [AB35505] | – | – | –
6.86 | 2.22 | 6.54 | COc1ccc2c(c1OCCCCl)C(C1CCCCC1)N1CCc3cc4c(cc3C1=C2)OCO4 (stereo not drawn) [AB35491] | – | – | –
1.21 | 0.22 | 1.32 | COc1ccc2c(c1OCCCCc1ccccc1)C(C(Cl)(Cl)Cl)N1CCc3cc4c(cc3C1=C2)OCO4 (stereo not drawn) [AB35535] | – | – | –
4.32 | 4.28 | 4.11 | COc1ccc2c(c1OC)C(CC(C)=O)N1CCc3cc4c(cc3C1=C2)OCO4 (stereo not drawn) [AB36472] | – | – | –
13.3 | 15 | 14.1 | CC1=C2c3cc4c(cc3CCN2C(C(Cl)(Cl)Cl)c2c1ccc1c2OCO1)OCO4 (stereo not drawn) [AB36442] | – | – | –
9.32 | 3.92 | 13.1 | COc1ccc2c(c1OC)C(c1ccccc1)N1CCc3cc4c(cc3C1=C2)OCO4 (stereo not drawn) [AB36467] | – | – | –
3.44 | 0.92 | 3.24 | COc1ccc2c(c1OC)CN1CCc3cc4c(cc3C1=C2)OCCO4 [AB36463] | – | – | –
4.12 | 1.33 | 6.08 | COc1c(OCCCCl)ccc2c1C(C1CCCC1)N1CCc3cc4c(cc3C1=C2)OCO4 (stereo not drawn) [AB36474] | – | – | –
5.68 | 1.22 | 8.82 | [2H]C1c2c(ccc(OC)c2OC)C=C2c3cc4c(cc3CC([2H])([2H])N21)OCO4 (stereo not drawn) [AB36477] | – | – | –
3.44 | 1.08 | 4.51 | CCCC1c2c(ccc3c2OCO3)C=C2c3cc4c(cc3CCN21)OCO4 (stereo not drawn) [AB36416] | – | – | –
7.56 | 3.28 | 6.98 | CCCC1=C2c3cc4c(cc3CCN2C(C(Cl)(Cl)Cl)c2c1ccc1c2OCO1)OCO4 (stereo not drawn) [AB36427] | – | – | –
3.68 | 1.26 | 4.46 | CCCC1=C2c3cc4c(cc3CCN2C(C2CCCC2)c2c1ccc1c2OCO1)OCO4 (stereo not drawn) [AB36432] | – | – | –
5.32 | 2.08 | 8.34 | COc1ccc2c(c1Cl)CN1CCc3cc4c(cc3C1=C2)OCO4 [AB36450] | – | – | –
1.36 | 0.37 | 1.98 | COc1ccc2c(c1N1CCC(C(F)(F)F)CC1)C(C(Cl)(Cl)Cl)N1CCc3cc4c(cc3C1=C2)OCO4 (stereo not drawn) [AB35514] | – | – | –
6.32 | 2.92 | 8.24 | COc1ccc2c(c1OCCCCCl)C(C(Cl)(Cl)Cl)N1CCc3cc4c(cc3C1=C2)OCO4 (stereo not drawn) [AB35496] | – | – | –
18.1 | 18.6 | 18.8 | CCC1=C2c3cc4c(cc3CCN2C(C(Cl)(Cl)Cl)c2c1ccc1c2OCO1)OCO4 (stereo not drawn) [AB36426] | – | – | –
6.96 | 2.16 | 6.52 | CCOc1c(OC)ccc2c1C(C(Cl)(Cl)Cl)N1CCc3cc4c(cc3C1=C2)OCO4 (stereo not drawn) [AB35499] | – | – | –
10.1 | 12.9 | 12.6 | COc1ccc2cc3n(c(=O)c2c1OC)CCc1cc2c(cc1-3)OCO2 [AB36496] | – | – | –
8.06 | 8.23 | 7.83 | COc1ccc2c(c1OC)C(c1ccncc1)N1CCc3cc4c(cc3C1=C2)OCO4 (stereo not drawn) [AB36488] | – | – | –
2.32 | 0.61 | 3.14 | CCC(CC)COc1c(OC)ccc2c1C(C(Cl)(Cl)Cl)N1CCc3cc4c(cc3C1=C2)OCO4 (stereo not drawn) [AB35521] | – | – | –
4.56 | 1.46 | 4.44 | CCCC1=C2c3cc4c(cc3CCN2C(C(Cl)(Cl)Cl)c2c1ccc(OC)c2OC)OCO4 (stereo not drawn) [AB35492] | – | – | –

Continued, molecule first:

SMILES | IC50 (ov-NNMT NCI-H82 cell; [1]) [µM] | IC50 (Con-NCI-H82 cell; [2]) [µM] | IC50 (sh-DNMT1 NCI-H82 cell; [3]) [µM] | IC50 (ov-NNMT NCI-H82 cell; NCI-H82 overexpressing NNMT protein) [µM] | IC50 (Con-NCI-H82 cell; NCI-H82 transfected with empty virus vector (control)) [µM] | IC50 (sh-DNMT1 NCI-H82 cell; NCI-H82 with DNMT1 knocked down by shRNA) [µM]
COc1ccc2c(c1OCCCBr)C(C)N1CCc3cc4c(cc3C1=C2)OCO4 (stereo not drawn) [AB31887] | 5.78 | 2.83 | 5.69 | – | – | –
COc1ccc2c(c1OC)C(C(Cl)(Cl)Cl)N1CCc3cc4c(cc3C1=C2CCCCc1ccccc1)OCO4 (stereo not drawn) [AB35469] | 3.52 | 0.79 | 5.32 | – | – | –
COc1ccc2c(c1OC/C=C(\C)CCC=C(C)C)C(C)N1CCc3cc4c(cc3C1=C2)OCO4 (stereo not drawn) [AB35402] | 2.43 | 0.88 | 3.45 | – | – | –
COc1ccc2c(c1OCCCCCCCl)C(C(Cl)(Cl)Cl)N1CCc3cc4c(cc3C1=C2)OCO4 (stereo not drawn) [AB35475] | 4.12 | 1.29 | 4.02 | – | – | –
ClC(Cl)(Cl)C1c2c(ccc3c2OCO3)C=C2c3cc4c(cc3CCN21)OCO4 (stereo not drawn) [AB35421] | 12.4 | 5.77 | 21.2 | – | – | –
COc1ccc2c(c1OCCCBr)C(C(Cl)(Cl)Cl)N1CCc3cc4c(cc3C1=C2)OCO4 (stereo not drawn) [AB35466] | 3.56 | 1.01 | 4.48 | – | – | –
COc1ccc2c(c1OCCCCCCNC(=O)OC(C)(C)C)C(C)N1CCc3cc4c(cc3C1=C2)OCO4 (stereo not drawn) [AB35415] | 3.42 | 1.14 | 5.48 | – | – | –
COc1ccc2c(c1OC)CN1CCc3cc4c(cc3C1=C2Cc1ccc(C(C)C)cc1)OCO4 [AB31870] | 1.32 | 0.53 | 2.54 | – | – | –
COc1ccc2c(c1OC)C(C(Cl)(Cl)Cl)N1CCc3cc4c(cc3C1=C2CCc1ccccc1)OCO4 (stereo not drawn) [AB35444] | 4.21 | 1.15 | 5.28 | – | – | –
COc1ccc2c(c1OCCN(C)C)C(C(Cl)(Cl)Cl)N1CCc3cc4c(cc3C1=C2)OCO4 (stereo not drawn) [AB35446] | 16.3 | 18.4 | 17.9 | – | – | –
CCCCC1c2c(c(Br)cc(OC)c2OC)C=C2c3cc4c(cc3CCN21)OCO4 (stereo not drawn) [AB31873] | 6.32 | 2.88 | 6.08 | – | – | –
COc1ccc2c(c1OC)C(C1CCCC1)N1CCc3cc4c(cc3C1=C2)OCO4 (stereo not drawn) [AB36497] | – | – | – | 18.3 | 19.9 | 17
COc1ccc2c(c1OCCCCOc1ccccc1)C(C)N1CCc3cc4c(cc3C1=C2)OCO4 (stereo not drawn) [AB31881] | 4.04 | 2.01 | 3.98 | – | – | –
COc1ccc2c(c1OCCN1CCCCC1)C(C)N1CCc3cc4c(cc3C1=C2)OCO4 (stereo not drawn) [AB35443] | 18.1 | 20.6 | 20.9 | – | – | –
COc1ccc2c(c1OC)C(C)N1CCc3cc4c(cc3C1=C2CCCCc1ccccc1)OCO4 (stereo not drawn) [AB35468] | 3.12 | 0.82 | 4.32 | – | – | –
ClC(Cl)(Cl)C1c2c(ccc3c2OCO3)C(CCCc2ccccc2)=C2c3cc4c(cc3CCN21)OCO4 (stereo not drawn) [AB35428] | 10.2 | 4.23 | 15.4 | – | – | –
COc1ccc2c(c1OCCCBr)CN1CCc3cc4c(cc3C1C2)OCO4 (stereo not drawn) [AB31878] | 7.98 | 8.23 | 8.46 | – | – | –
CCCCCC1=C2c3cc4c(cc3CCN2C(C)c2c1ccc(OC)c2OC)OCO4 (stereo not drawn) [AB35422] | 5.48 | 2.32 | 4.94 | – | – | –
CCCCCCC1c2c(ccc3c2OCO3)C=C2c3cc4c(cc3CCN21)OCO4 (stereo not drawn) [AB35426] | 1.56 | 0.46 | 2.12 | – | – | –
COc1ccc2c(c1OC)C(C1CCCC1)N1CCc3cc4c(cc3C1=C2Cc1ccc(C(C)C)cc1)OCO4 (stereo not drawn) [AB35460] | 2.02 | 0.66 | 2.56 | – | – | –
COc1ccc2c(c1N1CCC(C)CC1)C(C(Cl)(Cl)Cl)N1CCc3cc4c(cc3C1=C2)OCO4 (stereo not drawn) [AB35453] | 1.32 | 0.23 | 2.08 | – | – | –
CCCCCCC1c2c(ccc(OC)c2OC)C=C2c3cc4c(cc3CCN21)OCCO4 (stereo not drawn) [AB31880] | 3.32 | 0.99 | 3.86 | – | – | –
COc1ccc2c(c1OCCCCOc1ccccc1)C(C1CCCC1)N1CCc3cc4c(cc3C1=C2)OCO4 (stereo not drawn) [AB35454] | 3.25 | 1.02 | 4.98 | – | – | –
CCCCCCOc1c(OC)ccc2c1C(C(Cl)(Cl)Cl)N1CCc3cc4c(cc3C1=C2)OCO4 (stereo not drawn) [AB35487] | 1.98 | 0.49 | 3.23 | – | – | –
